Measurements published in patent US20240067617A1 (Albireo AB, priority 2022, published 2024).

Tests used:
hLBAT = biological target: T1, hLBAT (Homo sapiens, UniProt Q14973); experiment: LBAT (h/m) assay: 3H-taurocholic acid uptake in human LBAT-overexpressing cells; type: cell-based; details: 0.3 μM 3H-taurocholic acid + 7.5 μM cold taurocholic acid, 20 minutes at 37° C.
T1 construct: expressed in transfected cells; kept under Geneticin selection
T1 sequence (Q14973 1-349): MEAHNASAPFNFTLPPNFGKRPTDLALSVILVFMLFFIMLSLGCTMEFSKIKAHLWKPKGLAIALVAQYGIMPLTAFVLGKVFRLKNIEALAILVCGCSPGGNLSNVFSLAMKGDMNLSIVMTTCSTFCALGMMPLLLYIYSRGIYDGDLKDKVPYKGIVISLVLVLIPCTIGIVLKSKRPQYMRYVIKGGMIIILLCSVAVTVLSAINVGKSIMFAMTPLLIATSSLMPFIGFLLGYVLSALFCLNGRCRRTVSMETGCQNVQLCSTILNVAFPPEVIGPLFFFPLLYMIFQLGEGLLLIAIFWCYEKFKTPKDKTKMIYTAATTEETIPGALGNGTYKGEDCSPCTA
Experimental: LBAT (h/m) Assay Protocol
20,000 cells (Human or Mouse LBAT-overexpressing cells) were seeded in 96-wells plate (Corning CLS3809) in 100 μL MEM-alpha medium (Gibco 12571-063) supplemented with 10% FBS (Gibco 10438026) containing Geneticin (Gibco 10131-027) (1 mg/mL) and incubated at 37° C. in 5% CO2 for 24 hours. After incubation, media was decanted from the wells and cells were washed two times with 300 μL of basal MEM-alpha medium (FBS-free). After decanting basal MEM-alpha medium each time, plates were tapped against paper towel to ensure maximum removal of residual media. For human LBAT, incubation mix was prepared by adding test inhibitor dilutions (3-fold serial dilution in DMSO (Sigma D2650), 10 points) in MEM-alpha (without FBS) containing 0.3 μM 3H-taurocholic acid (ARC ART-1368) and 7.5 μM cold taurocholic acid (Sigma T4009) (maintaining 0.2% final DMSO concentration). For mouse LBAT, incubation mix was prepared by adding test inhibitor dilutions (3-fold serial dilution in DMSO, 10 points) in MEM-alpha (without FBS) containing 0.3 μM 3H-taurocholic acid and 25 μM cold taurocholic acid maintaining 0.2% final DMSO concentration). 50 μL of incubation mix containing test inhibitors was then added to the wells (in duplicate) and the plates were incubated for 20 minutes in a CO2 incubator at 37° C. After incubation, the reaction was stopped by keeping the plates on ice water mix for 2-3 minutes and then the incubation mix was aspirated completely from the wells. The wells were washed two times with 250 μL of chilled unlabelled 1 mM taurocholic acid dissolved in HEPES (Gibco 15630080)-buffered (10 mM) HBSS (Gibco 14175079) (pH 7.4). The plates were tapped against a paper towel after every wash to ensure maximum removal of blocking buffer.
100 μL of MicroScint-20 (PerkinElmer 6013621) was added to the wells and kept overnight at RT before reading the plates in TopCount NXT™ Microplate Scintillation and Luminescence Counter from PerkinElmer under 3H Test protocol (set at 120 seconds reading time per well, with normal plate orientation).
(§1) Preparation of Test Compound Dilutions
(§2) All test compounds were provided in powder form at RT. 10 mM DMSO stocks of the test compounds were prepared, aliquoted and stored at −20° C. From the 10 mM DMSO stock of the compounds, a 3-fold serial dilution in DMSO was prepared to get a total of 10 dilutions of the test compounds. 0.5 μL of this dilution in DMSO was added to 250 μL of FBS-free basal media containing 3H-taurocholic acid and cold taurocholic acid to prepare the incubation mixture.

hIBAT = biological target: T2, hIBAT (Homo sapiens, UniProt Q12908); experiment: IBAT (h/m) assay: 3H-taurocholic acid uptake in human IBAT-overexpressing cells; type: cell-based; details: 0.25 μM 3H-taurocholic acid + 5 μM cold taurocholic acid, 20 minutes at 37° C., highest test concentration 10 μM
T2 construct: expressed in transfected cells; kept under Puromycin selection
T2 sequence (Q12908 1-348): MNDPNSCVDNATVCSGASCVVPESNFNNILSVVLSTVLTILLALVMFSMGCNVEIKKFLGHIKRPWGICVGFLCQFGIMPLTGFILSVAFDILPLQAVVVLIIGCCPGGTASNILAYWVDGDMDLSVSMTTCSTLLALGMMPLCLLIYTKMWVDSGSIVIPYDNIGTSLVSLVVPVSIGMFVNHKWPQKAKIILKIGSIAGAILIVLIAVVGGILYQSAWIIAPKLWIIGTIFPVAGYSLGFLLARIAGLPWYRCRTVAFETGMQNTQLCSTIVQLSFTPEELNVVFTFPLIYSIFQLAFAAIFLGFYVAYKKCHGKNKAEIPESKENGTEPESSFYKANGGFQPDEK
Experimental: IBAT (h/m) Assay Protocol
10,000 cells (Human or Mouse IBAT-overexpressing cells) were seeded in 96-wells plate (Corning CLS3809) in 200 μL MEM-alpha medium (Gibco 12571-063) supplemented with 10% FBS (Gibco 10438026) containing Puromycin (Gibco A1113803) (10 μg/mL) and incubated at 37° C. in 5% CO2 for 48 hours. After incubation, media was decanted from the wells and cells were washed two times with 300 μL of basal MEM-alpha medium (FBS-free). After decanting basal MEM-alpha medium each time, plates were tapped against paper towel to ensure maximum removal of residual media. Test inhibitor dilutions (highest test concentration being 10 μM, 3-fold serial dilution, 10 points) prepared in DMSO (Sigma D2650) were added in incubation mix (maintaining 0.2% final DMSO concentration) containing 0.25 μM 3H-taurocholic acid (ARC ART-1368) and 5 μM of cold taurocholic acid (Sigma T4009). 50 μL of incubation mix containing test inhibitors was then added to the wells (in duplicate) and the plates were incubated for 20 minutes in a CO2 incubator at 37° C. After incubation, the reaction was stopped by keeping the plates on ice water mix for 2-3 minutes and then the incubation mix was aspirated completely from the wells. The wells were washed two times with 250 μL of chilled unlabelled 1 mM taurocholic acid dissolved in HEPES (Gibco 15630080)-buffered (10 mM) HBSS (Gibco 14175079) (pH 7.4). The plates were tapped against a paper towel after every wash to ensure maximum removal of blocking buffer.
100 μL of MicroScint-20 (PerkinElmer 6013621) was added to the wells and kept overnight at RT before reading the plates in TopCount NXT™ Microplate Scintillation and Luminescence Counter from PerkinElmer under 3H Test protocol (set at 120 seconds reading time per well).
as §1, §2

Row | IC50 (hLBAT) | IC50 (hIBAT) | Structure (SMILES)
1 | 34 nM | 70 nM | CCCCC1CN(c2ccccc2)c2cc(SC)c(CSCC(=O)O)cc2S(=O)(=O)N1C (racemic) [Example 11, 2-(((3-butyl-2-methyl-7-(methylthio)-1,1-dioxido-5-phenyl-2,3,4,5-tetrahydro-1,2,5-benzothiadiazepin-8-yl)methyl)thio)acetic acid]
2 | 200 nM | 349 nM | CCCCC1CN(c2ccc(F)cc2)c2cc(OC)c(CSCC(=O)O)cc2S(=O)(=O)N1C (single isomer, unassigned) [30, enantiomer 2]
3 | > 3330 nM | 0.3 nM | CCCCC1(CC)CN(c2ccccc2)c2cc(SC)c(CSCC(=O)O)cc2S(=O)(=O)N1 (single isomer, unassigned) [10, enantiomer 1]
4 | 1130 nM | > 10000 nM | CCCCC1CN(c2ccccc2)c2cc(OC)c(CSC(C)(C)C(=O)O)cc2S(=O)(=O)N1C (single isomer, unassigned) [38, enantiomer 1]
5 | 248 nM | 2320 nM | CCCC[C@@H]1CN(c2ccccc2)c2cc(N(C)C)c(CSCC(=O)O)cc2S(=O)(=O)N1 [Example 49, (R)-2-(((3-butyl-7-(dimethylamino)-1,1-dioxido-5-phenyl-2,3,4,5-tetrahydro-1,2,5-benzothiadiazepin-8-yl)methyl)thio)acetic acid]
6 | 4400 nM | 44 nM | CCCCC1(C)CN(c2ccccc2)c2cc(SC)c(CSCC(=O)O)cc2S(=O)(=O)C1 (single isomer, unassigned) [5, enantiomer 2]
7 | > 10000 nM | 115 nM | CCCCC1CN(c2ccccc2)c2cc(SC)c(CSCC(=O)O)cc2S(=O)(=O)N1C (single isomer, unassigned) [12, enantiomer 1]

The next lines start with the compound.

Row | Structure (SMILES) | IC50 (hLBAT) | IC50 (hIBAT)
8 | CCCCC1(CC)CN(c2ccccc2)c2cc(OC)c(CSC(C)(C)C(=O)O)cc2S(=O)(=O)C1 (racemic) [Example 25, 2-(((3-butyl-3-ethyl-7-methoxy-1,1-dioxido-5-phenyl-2,3,4,5-tetrahydro-1,5-benzothiazepin-8-yl)methyl)thio)-2-methylpropanoic acid] | 135 nM | 217 nM
9 | CCCCC1(CC)CN(c2ccccc2)c2cc(OC)c(CSCC(=O)O)cc2S(=O)(=O)C1 (single isomer, unassigned) [14, enantiomer 2] | > 1000 nM | 64 nM
10 | CCCCC1(CCCC)CN(c2ccc(F)cc2)c2cc(OC)c(CSCC(=O)O)cc2S(=O)(=O)C1 [Example 32, 2-(((3,3-dibutyl-5-(4-fluorophenyl)-7-methoxy-1,1-dioxido-2,3,4,5-tetrahydro-1,5-benzothiazepin-8-yl)methyl)thio)acetic acid] | > 3330 nM | 0.6 nM
11 | CCCCC1(CC)CN(c2ccc(F)cc2)c2cc(OC)c(CSCC(=O)O)cc2S(=O)(=O)C1 (single isomer, unassigned) [40, enantiomer 2] | > 10000 nM | 36 nM
12 | CCCCC1(CC)CN(c2ccccc2)c2cc(N(C)C)c(CSCC(=O)O)cc2S(=O)(=O)N1 (stereo not shown) [Example 46, 2-(((3-butyl-7-(dimethylamino)-3-ethyl-1,1-dioxido-5-phenyl-2,3,4,5-tetrahydro-1,2,5-benzothiadiazepin-8-yl)methyl)thio)acetic acid] | > 1000 nM | 4.8 nM
13 | CCCCC1(CC)CN(c2ccccc2)c2cc(OC)c(CSCC(=O)O)cc2S(=O)(=O)N1 (racemic) [Example 44, 2-(((3-butyl-3-ethyl-7-methoxy-1,1-dioxido-5-phenyl-2,3,4,5-tetrahydro-1,2,5-benzothiadiazepin-8-yl)methyl)thio)acetic acid] | > 1000 nM | 5.2 nM
14 | CCCCC1(C)CN(c2ccccc2)c2cc(OC)c(CSCC(=O)O)cc2S(=O)(=O)N1 (stereo not shown) [Example 53, 2-(((3-butyl-7-methoxy-3-methyl-1,1-dioxido-5-phenyl-2,3,4,5-tetrahydro-1,2,5-benzothiadiazepin-8-yl)methyl)thio)acetic acid] | > 1000 nM | 14 nM
